US10959979B2, “Small molecules against cancer” (Biokine Therapeutics Ltd., priority 2015, dated 2021)
“Also recorded” adds a separate entry of the source.

What was measured:
SDF-1 = SDF-1 (Homo sapiens, UniProt P48061); test: Migration of Jurkat cells towards SDF-1 (Transwell migration assay); type: cell-based; conditions: for Selectivity of inhibition of SDF-1 function over MCP-1 and/or MIP3a function: at a concentration of about 10 μg/ml
Method: (§1) 600 μl of RPMI medium was added to the lower chambers of Transwell® transmigration plates, supplemented with 2 μg/ml of MIP3a, 100 ng/ml of SDF-1 or 10 ng/ml of MCP-1. The tested small molecule was added to the lower chambers at the indicated concentration, except in control samples. The MIP3a, SDF-1 or MCP-1 was incubated with the small molecule for 30 minutes at room temperature before the initiation of the migration assay. Following 30 minutes of incubation 2×10^5 immune cells were added to the upper chambers of the transmigration plates in a total volume of 100 μl. Cells which migrated within 3 hours to the bottom chamber of the Transwell® plates were counted using a FACScalibur™ flow cytometer.
To evaluate migration towards SDF-1, Jurkat cells were re-suspended in RPMI medium containing 1% fetal calf serum (FCS).

MCP-1 = MCP-1 (Homo sapiens, UniProt P13500); test: Migration of THP-1 cells towards MCP-1 (Transwell migration assay); type: cell-based; conditions: BKT300 at 78% purity
Method: as §1
To evaluate migration towards MCP-1, THP-1 cells were re-suspended in RPMI medium containing 1% fetal calf serum (FCS).

MIP3a = MIP3a (Homo sapiens, UniProt P78556); test: Migration of CD4+ T-cells toward MIP3a (Transwell migration assay); type: cell-based
Method: as §1
To evaluate migration toward MIP3a, peripheral blood mononuclear cells (PBMCs) were isolated from heparinized venous blood by centrifugation over Ficoll Histopaque® 1077. CD4+ T cells were further isolated with RosetteSep™ human CD4+ T-cell Enrichment cocktail (StemCell Technologies Inc.), according to the manufacturer's instructions. CD4+ T cells were re-suspended in RPMI medium containing 1% fetal calf serum (FCS).

Legionella = conditions: cited from earlier work
[1] = test system: MV4-11 human acute myeloid leukemia cells; test: Cancer cell viability, FACS with propidium iodide staining; type: cell-based; conditions: 24 hours
Method: In order to assess the effect of compounds of Table 2 on cancer cell viability, the in vitro effect of the compounds on MV4-11 human acute myeloid leukemia cells was evaluated. The cancer cells were incubated in RPMI cell medium with 1% fetal calf serum (FCS) at a concentration of 2×10^5 cells/well at a final volume of 250 μl in 96-well plate. The compounds were added to the cells at the indicated concentrations. The cells were incubated for 24 hours and the number of dead and viable cells was then evaluated by fluorescence-activated cell sorting (FACS), using propidium iodide (PI) staining.

cancer cells = conditions: literature reports; cited from earlier work
[2] = test system: MCP-1 expression in adipocytes; conditions: reported by Kuroyanagi et al.; cited from earlier work

SDF-1, sequence (P48061 22-93): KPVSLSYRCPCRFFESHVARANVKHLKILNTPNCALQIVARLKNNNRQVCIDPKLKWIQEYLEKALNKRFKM
MCP-1, sequence (P13500 24-99): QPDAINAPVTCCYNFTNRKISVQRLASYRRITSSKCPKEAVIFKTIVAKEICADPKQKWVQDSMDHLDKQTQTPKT
MIP3a, sequence (P78556 27-96): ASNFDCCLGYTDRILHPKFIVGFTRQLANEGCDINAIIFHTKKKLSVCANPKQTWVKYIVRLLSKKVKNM

SMILES	Inhibition of migration of lymphocytic Jurkat cells towards SDF-1 (SDF-1; 10 μg/ml, BKT300 at 78% purity)	Inhibition of migration of monocytic THP-1 cells towards MCP-1 (MCP-1; 10 μg/ml)	Inhibition of migration of monocytic THP-1 cells towards MCP-1 (MCP-1; 50 μg/ml)	Inhibition of CD4+ T-cell migration towards MIP3a (MIP3a; 50 μg/ml, BKT300 at 78% purity)	Inhibition of CD4+ T-cell migration towards MIP3a (MIP3a; 10 μg/ml)	further results
CCCCCCCCC(=O)/C=C/C=C/C(=O)CCCC(=O)O [BKT209]	significantly inhibited; also recorded: strong inhibition	no apparent effect	strong inhibition	completely inhibited	–	Selectivity of inhibition of SDF-1 function over MCP-1 and/or MIP3a function (SDF-1): relatively selective manner
COC(=O)c1c(O)cc2c(c1C)C(=O)c1c(O)cccc1C2=O [BKT207, Aloesaponarin I]	significantly inhibited; also recorded: strong inhibition	–	–	–	completely inhibited	–
CCCCCC=CC=CC(=O)CCCCCCCC(=O)O [BKT205]	significantly inhibited; also recorded: strong inhibition	no apparent effect	strong inhibition	completely inhibited	–	Selectivity of inhibition of SDF-1 function over MCP-1 and/or MIP3a function (SDF-1): relatively selective manner
CCCCCC(=O)Cc1cc(O)cc(O)c1Oc1cc(O)cc2cc(CCCCC)oc(=O)c12 [8-(2,4-dihydroxy-6-(2-oxoheptyl)-phenoxy)-6-hydroxy-3-pentyl-1H-isochromen-1-one]	–	–	–	–	–	Antibacterial activity against Legionella (Legionella): potent antibacterial activity
C=C1CCC2C(C)(C)C(O)CCC2(C)C1COc1ccc2ccc(=O)oc2c1 (stereo not drawn) [BKT202]	–	–	–	completely inhibited	significantly inhibited	–
CC(C)=CCc1cc(OC2O[C@H](CO)[C@@H](O)[C@H](O)[C@H]2O)cc(CC=C(C)C)c1C(O)C(=O)O (stereo partly drawn) [BKT213]	significantly inhibited; also recorded: strong inhibition	–	–	completely inhibited	–	Selectivity of inhibition of SDF-1 function over MCP-1 and/or MIP3a function (SDF-1): relatively selective manner
CCC/C=C\C/C=C\CCCCCCCc1cccc(O)c1C(=O)O [BKT206]	significantly inhibited; also recorded: strong inhibition	partial inhibition	strong inhibition	–	completely inhibited	Cell death of MV4-11 cells ([1]; 10 μg/ml): induced cell death
Cc1c(O)c(C)c2c(c1O)C(=O)CC(c1ccc(O)c(O)c1)O2 (stereo not drawn) [BKT204, Cyrtominetin]	significantly inhibited	partial inhibition	strong inhibition	–	–	–
C/C(=C/COc1c2occc2cc2ccc(=O)oc12)CO [BKT208, Trichoclin]	significantly inhibited	–	–	–	–	–
CC1(C)CC[C@]2(C(=O)O)CC[C@]3(C)C(=CC[C@@H]4[C@@]5(C)C[C@@H](O)[C@H](O)[C@@](C)(CO)[C@@H]5CC[C@]43C)[C@@H]2C1 [BKT216, Arjunolic acid]	–	partial inhibition	strong inhibition	–	–	Inhibition of cancer cells (cancer cells): inhibit cancer cells
Cc1cc(O)c2c(=O)c3c(O)cc(O)c4c5c(O)cc(O)c6c(=O)c7c(O)cc(C)c8c1c2c(c34)c(c78)c65 [BKT203, Hypericin]	significantly inhibited; also recorded: strong inhibition	–	–	–	completely inhibited	–
CCCCCc1cc2cc(O)cc(Oc3c(O)cc(O)c(C(=O)O)c3CCCCC)c2c(=O)o1 [BKT400]	–	–	–	–	–	Inhibition of migration of lymphocytic Jurkat cells towards SDF-1 (SDF-1; 1 and 10 μg/ml tested (FIG. 15)): inhibit the migration
CC(C)=CCC/C(C)=C/COc1ccc2ccc(=O)oc2c1 [BKT215, Auraptene]	–	–	–	–	–	MCP-1 expression in adipocytes [2]: suppress MCP-1 expression; Cell death of MV4-11 cells ([1]; 20 am (equivalent to 6 μg/ml)): induced cell death; Inhibition of cancer cells (cancer cells): inhibit cancer cells
CC(C)=CCc1c(O[C@@H]2O[C@H](CO)[C@@H](O)[C@H](O)[C@H]2O)cc(O)c2c1O[C@H](c1ccc(O)cc1)CC2=O [BKT201]	significantly inhibited; also recorded: strong inhibition	no apparent effect	strong inhibition	completely inhibited	–	Selectivity of inhibition of SDF-1 function over MCP-1 and/or MIP3a function (SDF-1): relatively selective manner
CC1CCC2=C(CCCC2(C)C(=O)O)C1(C)CCc1ccoc1 (stereo not drawn) [BKT211]	significantly inhibited; also recorded: strong inhibition	complete inhibition	strong inhibition	–	–	Cell death of MV4-11 cells ([1]; 10 μg/ml): induced cell death
O=C(O)c1cc(O)c2c(c1)[C@H]([C@H]1c3cc(C(=O)O)cc(O)c3C(=O)c3c(O[C@@H]4O[C@H](CO)[C@@H](O)[C@H](O)[C@H]4O)cccc31)c1cccc(O[C@@H]3O[C@H](CO)[C@@H](O)[C@H](O)[C@H]3O)c1C2=O [BKT210, Sennoside A]	significantly inhibited	–	–	completely inhibited	significantly inhibited	–
C=C[C@H](O)C#CC#C[C@@H](O)/C=C\CCCCCCC [BKT212, Falcarindiol]	significantly inhibited; also recorded: strong inhibition	–	–	–	completely inhibited	Inhibition of cancer cells (cancer cells): inhibit cancer cells
